Results: patent US20250092080A1, “FLEX-NUCLEOSIDE ANALOGUES, NOVEL THERAPEUTICS AGAINST VIRUSES” (priority 2022, published 2025)
pEC50, pIC50: −log10 of the molar value. “And” between values parts separate entries of the source, which are not always exact repeats. Equal entries are not always repeated. Where two headings read alike, the source gives them in different places.

Assays:
Rift Valley Fever Virus = assay: microbe, parasite or virus in culture; type: cell-based
in vitro [1] = assay: in vitro
Rubella Virus = Rubella Virus antiviral screening, A549; type: cell-based
[2] = Cell viability in A549 (parallel to Rubella screening); type: cell-based; settings: human, A549 cells, RA-0001522
Ebola Virus [3] = assay: microbe, parasite or virus in culture; type: cell-based, strain Zaire
Dengue Virus 4 = assay: DENV4 antiviral activity (Tables 11-15); type: cell-based
Huh7 cells = settings: human
Dengue Virus 2 [4] = assay: DENV2 antiviral activity (Tables 11-15); type: cell-based; settings: for pIC50: DENV2
in vitro [5] = settings: human
Ebola Virus [6] = assay: microbe, parasite or virus in culture; type: cell-based; settings: Zaire ebolavirus, Huh-7
SARS-CoV-2 (WA-1) = assay: SARS-CoV-2 (WA)(A549) #1 antiviral activity; type: cell-based; settings: Severe acute respiratory syndrome coronavirus 2; WA-1 strain in A549 cells; lab #1
in vitro [7] = settings: human; remark: listed apart in the source
SARS-CoV-2 (Omicron) = SARS-CoV-2 (Omicron) (Calu3) #1 antiviral activity; type: cell-based; settings: Severe acute respiratory syndrome coronavirus 2; Omicron strain in Calu-3 cells; lab #1
SARS-CoV-2 = SARS-CoV-2 (A549) #2 antiviral activity; type: cell-based; settings: Severe acute respiratory syndrome coronavirus 2, lab #2
[8] = Cytotoxicity printed in the DENV4 lines (Tables 11-15); type: cell-based; settings: cells not given
[9] = Cytotoxicity, A549 cells, lab #1; settings: human
[10] = Cytotoxicity printed in the CHIKV line (Table 11)
in vitro [11] = assay: in vitro; remark: listed apart in the source
[12] = test system: Venezuelan Equine Encephalitis Virus; assay: microbe, parasite or virus in culture; type: cell-based
[13] = Cytotoxicity, A549, lab #2; settings: human, A549 cells
Chikungunya Virus = assay: CHIKV antiviral activity (Tables 11-15); type: cell-based
Epstein-Barr virus = assay: microbe, parasite or virus in culture; type: cell-based, strain Akata; settings: human gammaherpesvirus 4, Akata
in vitro [14] = settings: human; remark: listed apart in the source
Enterovirus-71 = assay: organism not typed; type: cell-based
Dengue Virus 2 [15] = assay: microbe, parasite or virus in culture; type: cell-based, strain New Guinea C; settings: Huh-7
MERS Coronavirus = type: cell-based, strain EMC
[16] = Cytotoxicity, Calu3 (WA test); type: cell-based; settings: human, Calu3 cells; Calu3 (WA lines)
SARS-CoV-2 (WA) = assay: SARS-CoV-2 (WA)(Calu3) antiviral activity; type: cell-based, WA strain; settings: Severe acute respiratory syndrome coronavirus 2, Calu-3

CNc1nc(N)ncc1-c1cn([C@@H]2O[C@H](COP(=O)(NC(C)C(=O)OC(C)C)Oc3ccccc3)C(O)C2(C)F)cn1 (stereo in doubt) [CDW3-002, propan-2-yl-(2S)-2-(((((2R,3R,4R,5R)-5-(4-(2-amino-4-(methylamino)pyrimidin-5-yl)-1H-imidazol-1-yl)-4-fluoro-3-hydroxy-4-methyloxolan-2-yl)methyl)(phenyl)phosphono)amino) propanoate]
pIC50 (Rift Valley Fever Virus): 4.13
IC90 (Rift Valley Fever Virus): > 100 µM
CC50 (in vitro [1]): > 100 µM
pIC50 (Rubella Virus): 4.16
IC90 (Rubella Virus): > 100 µM
CC50 [2]: 97.2 µM
pEC50 (Ebola Virus [3]; Zaire ebolavirus, Vero, read-out: EC50): 4.52

COc1ncc(-c2cn([C@@H]3O[C@H](CO[P@@](=O)(N[C@@H](C)C(=O)OC(C)C)Oc4ccccc4)[C@H](O)C3(C)F)cn2)c(OC)n1 (stereo partly shown) [CDW3-007]
pIC50 (Dengue Virus 4; DENV4): < 4.30
CC50 (Huh7 cells): > 200 µM
pIC50 (Dengue Virus 2 [4]): 4.35
CC50 (in vitro [5]): 274 µM

CC(C)OC(=O)[C@H](C)N[P@](=O)(OC[C@H]1O[C@@H](n2cnc(-c3cnc(N)nc3)c2)C(C)(F)[C@H]1O)Oc1ccccc1 (stereo partly shown) [CDW3-014]
inhibition at 50 µM (Dengue Virus 4; DENV4, read-out: % inhib): 27%
inhibition at 50 µM (Dengue Virus 2 [4]; DENV2, read-out: % inhib): 13.6%
pIC50 (Ebola Virus [6]): 4.98
CC50 (in vitro [5]): 33.4 µM

COc1ncc(-c2cn([C@@H]3O[C@H](CO[P@@](=O)(N[C@@H](C)C(=O)OC(C)C)Oc4ccccc4)[C@H](O[P@@](=O)(N[C@@H](C)C(=O)OC(C)C)Oc4ccccc4)C3(C)F)cn2)c(OC)n1 (stereo partly shown) [CDW3-015]
pIC50 (SARS-CoV-2 (WA-1)): 4.91
pIC50 (Dengue Virus 4; DENV4): 4.80
IC90 (Dengue Virus 4; DENV4): 26 µM
CC50 (in vitro [7]): 1.74 µM
pIC50 (SARS-CoV-2 (Omicron)): 4.71
pIC50 (SARS-CoV-2): 5.53
CC50 [8]: > 100 µM
pIC50 (Ebola Virus [6]): 4.33
CC50 [9]: > 100 µM
CC50 (in vitro [5]): > 200 µM

CNc1cc(-c2cncn2[C@@H]2O[C@H](CO[P@@](=O)(N[C@@H](C)C(=O)OC(C)C)Oc3ccccc3)[C@H](O[P@@](=O)(N[C@@H](C)C(=O)OC(C)C)Oc3ccccc3)C2(C)F)nc(N)n1 (stereo partly shown) [CEM-034]
CC50 [10]: > 100 µM
pIC50 (SARS-CoV-2 (WA-1)): 4.87
pIC50 (Dengue Virus 4; DENV4): 4.74
pIC50 (Dengue Virus 2 [4]): 4.85
CC50 (in vitro [7]): 35.4 µM
pIC50 (SARS-CoV-2 (Omicron)): 4.65
CC50 (in vitro [11]): > 100 µM
pIC50 (SARS-CoV-2): 5.19
pEC50 [12]: 4.71
pIC50 (Ebola Virus [6]): 4.87
CC50 [13]: 15.4 µM
CC50 [9]: 4.05 µM
CC50 (in vitro [5]): 85 µM
pEC50 (Chikungunya Virus): 4.70

Cc1ccc(-c2cn([C@@H]3C[C@@H](O)[C@H](CO)O3)c(=O)[nH]c2=O)s1 [CHK-03, 1-((2S,4R,5S)-4-hydroxy-5-(hydroxymethyl)tetrahydrofuran-2-yl)-5-(5-methylthiophen-2-yl)pyrimidine-2,4(1H,3H)-dione]
EC90 (Epstein-Barr virus): 18.7 µM
pEC50 (Epstein-Barr virus; read-out: EC50): 5.53
CC50 (in vitro [14]): > 100 µM

Nc1nc(=O)n([C@@H]2C[C@@H](O)[C@H](CO)O2)cc1-c1ccco1 [CHK-05, 4-amino-5-(furan-2-yl)-1-((2S,4R,5S)-4-hydroxy-5-(hydroxymethyl)tetrahydrofuran-2-yl)pyrimidin-2(1H)-one]
pEC50 (Enterovirus-71): 4.62
pEC50 (Epstein-Barr virus; read-out: EC50): 4.16
pEC50 (Dengue Virus 2 [15]): 4.10

Nc1ccn(C[C@@H](CO)OCP(=O)(O)O)c(=O)n1 [Cidofovir, reference compound]
pEC50 (Epstein-Barr virus): 5.41
EC90 (Epstein-Barr virus): 71.4 µM
CC50 (in vitro [14]): > 100 µM

O=c1nc(NO)ccn1[C@@H]1O[C@H](CO)[C@@H](O)[C@H]1O [EIDD-1931]
EC50 (MERS Coronavirus): 0.036 µg/mL and 0.034 µg/mL

NC(=O)c1nc(F)c[nH]c1=O [Favipiravir, reference compound]
pEC50 (Ebola Virus [3]; Zaire ebolavirus, Vero): 4.92

COc1nc(N)ncc1-c1cn(COCCO)cn1 [JT-001]
EC90 (Epstein-Barr virus): > 100 µM
pEC50 (Epstein-Barr virus; read-out: EC50): 4.22
CC50 (in vitro [14]): > 100 µM

COc1ncc(-c2cn(COCCO)cn2)c(OC)n1 [JT-004]
EC90 (Epstein-Barr virus): > 100 µM
pEC50 (Epstein-Barr virus; read-out: EC50): 4.06
CC50 (in vitro [14]): > 100 µM

CCC(CC)COC(=O)[C@H](C)NP(=O)(OCCOCn1cnc(-c2cnc(OC)nc2OC)c1)Oc1ccccc1 (stereo partly shown) [JT-005]
pEC50 (Ebola Virus [3]; read-out: EC50): 4.92
CC50 (Vero): > 100 µM

COc1ncc(-c2cn(COCCOC(C)=O)cn2)c(OC)n1 [JT-006]
EC90 (Epstein-Barr virus): > 100 µM
pEC50 (Epstein-Barr virus; read-out: EC50): 4.10
CC50 (in vitro [14]): > 100 µM

CCC(CC)COC(=O)[C@H](C)N[P@](=O)(OCCOCn1cncc1-c1cnc(OC)nc1OC)Oc1ccccc1 [JT-092]
pIC50 (SARS-CoV-2 (WA-1)): 4.53
IC90 (SARS-CoV-2 (WA-1)): 273 µM
CC50 [16]: > 100 µM
CC50 [9]: > 100 µM
pIC50 (SARS-CoV-2 (WA)): 4.08
IC90 (SARS-CoV-2 (WA)): 172 µM

CCC(=O)OCCOCn1cnc(-c2cnc(OC)nc2)c1 [JT-093]
pIC50 (Dengue Virus 4; DENV4): < 4.30
pIC50 (Dengue Virus 2 [4]): 4.68

CCC(CC)COC(=O)[C@H](C)N[P@](=O)(OCCOCn1cncc1-c1cnc(N)nc1OC)Oc1ccccc1 [JT-096]
pIC50 (SARS-CoV-2 (WA-1)): 4.98
IC90 (SARS-CoV-2 (WA-1)): 46.3 µM
pIC50 (Dengue Virus 4; DENV4): < 4.38
pIC50 (Dengue Virus 2 [4]): < 4.55
CC50 [16]: > 100 µM
pIC50 (Ebola Virus [6]): 4.28
CC50 [9]: 73.3 µM
pIC50 (SARS-CoV-2 (WA)): 4.50
IC90 (SARS-CoV-2 (WA)): 106 µM
CC50 (in vitro [5]): 28 µM
